In PMC12196043, “In Vivo PK-PD and Drug–Drug Interaction Study of Dorzagliatin for the Management of PI3Kα Inhibitor-Induced Hyperglycemia” (Pharmaceuticals, 2025):
≈ marks a conversion by molar mass, not a printed value. Where “and” joins values, the source holds several entries; their conditions need not be identical. Equal values may be shown once. Read-outs that look alike come from different tables or passages of the source. Blank lines part the entries; values can stand above or below the molecule they belong to.

Key:
[1] = Plasma pharmacokinetics by LC-MS/MS in OVCAR3 xenograft tumor-bearing nude mice; assay type: in vivo, BALB/c nude mice; details: n = 3
Procedure: (§1) This study, approved by Fudan University Ethics Committee (protocol code: 201904008Z) on 26 April 2019, was conducted in compliance with AAALAC’s International Commission guidelines for laboratory animal evaluation and accreditation. A total of 36 female BALB/c nude mice (6–8 weeks old, weighing 18–20 g) were purchased from Charles River Laboratories (Pinghu, China). The OVCAR3 ovarian cancer cell line (ATCC® HTB-161™) was used to establish human xenografts. OVCAR3 cells (10 × 10^6) suspended in 0.2 mL of Matrigel were subcutaneously inoculated into the dorsal region of each mouse. Tumors were allowed to grow until reaching a volume of ~160 mm^3, typically around 30 days post-inoculation.
(§2) WX390 was prepared in Solvent-1, comprising dimethyl sulfoxide (DMSO): methylcellulose: water at a ratio of 1:1:98 (v/v/v). BYL719 and dorzagliatin were formulated in Solvent-2, consisting of Tween 80: water with 0.5% methylcellulose (MC) solution at a ratio of 0.2:99.8 (v/v). The treatment control was a combination of Solvent-1 and Solvent-2. The test compounds were administered orally as follows: WX390 at 0.2 mg/kg, BYL719 at 25 mg/kg, and dorzagliatin at 10 mg/kg, dissolved in their respective formulations. Due to ethical considerations regarding gavage volume the administration volume across all groups was standardized to 10 μL/g of body weight.
(§3) The experiment involved six treatment groups, each comprising six mice. The groups included: (i) vehicle control, (ii) WX390 (0.2 mg/kg), (iii) BYL719 (25 mg/kg), (iv) dorzagliatin (10 mg/kg), (v) WX390 (0.2 mg/kg) + dorzagliatin (10 mg/kg), and (vi) BYL719 (25 mg/kg) + dorzagliatin (10 mg/kg). All treatments were administered via oral gavage once daily for four weeks. In the combination group of PI3Ki and dorzagliatin, dorzagliatin was administered 30 min prior to PI3Ki.
Following the 4-week treatment period, all experimental groups were fasted 6 h before the last administration until the end of the experiment. Water was not restricted during the fasting period. Blood samples were collected at 0, 0.5, 1, 2, 4, and 8 h after administration. Each mouse had 3 blood collection points, with 50 μL of plasma collected at each point. Mice in each group were allocated to two cohorts: The first cohort underwent blood collection at 0, 1, and 2 h post-administration, while the second cohort was sampled at 0.5, 4, and 8 h post-administration. Terminal blood collection at the 2-h time point for the first cohort was performed via cardiac puncture following euthanasia, during which tumor tissues were concurrently harvested from this cohort. Blood samples were processed through centrifugation (4 °C, 1500× g for 10 min) for plasma separation. All plasma and tumor samples were immediately snap-frozen in liquid nitrogen and stored at −80 °C for subsequent analysis.
The extraction of WX390, BYL719, and dorzagliatin from plasma samples was performed using protein precipitation. Internal standards (IS) included SBL-D3, BNSL-D5, and PLPL-D8 for WX390, BYL719, and dorzagliatin, respectively. Plasma samples (20 μL) were mixed with 20 μL of zinc sulfate aqueous solution (0.1 mol/L) and 200 µL of a 50% methanol solution containing three internal standards followed by vortexing for 10 min. The samples were centrifuged at 4 °C (15,000× g for 5 min). The supernatant (180 μL) was transferred to a clean Eppendorf tube, and a 10 μL aliquot was injected into the LC-MS/MS system.
Chromatographic separations were performed using an AB SCIEX Jasper HPLC system coupled with an AB SCIEX Triple Quad 4500MD mass spectrometer (AB SCIEX, USA). A Phenomenex Kinetex C18 column (100 × 3 mm, 2.6 μm) was used at 40 °C. The flow rate was maintained at 0.4 mL/min with a total run time of 4 min. […]

[2] = test system: OVCAR3 xenograft tumor; assay: In vivo tumor growth, OVCAR3 subcutaneous xenograft tumor model; set-up: species or system BALB/c nude mice; details: n = 6; for T/C (Relative Tumor Growth Rate) / TGI (Tumor Growth Inhibition): based on tumor volume on day 28, vs vehicle; for Tumor Volume (Day 28): day 28 after administration, oral once daily, Dorz 10 mg/kg, WX390 0.2 mg/kg, BYL719 25 mg/kg, vehicle 1582 mm^3
Procedure: as §1, §2, §3
Tumor dimensions were measured biweekly using a vernier caliper. Tumor volume was calculated using the formula:(1) V=0.5a×b^2 where: • a represents the longest tumor diameter. • b represents the shortest diameter.
The antitumor efficacy of each group was evaluated using TGI or T/C. TGI (%) reflects the rate of tumor growth inhibition and is calculated as follows:(2) TGI%=1−Vend−V0exp/Vend−V0control×100% where: • Vend represents mean tumor volume at the end of treatment in the group. • V0 represents mean tumor volume at the start of treatment in the group. • exp represents the treated groups. • control represents the vehicle control group.
T/C (%) is calculated using the formula:(3) T/C%=TRTV/CRTV×100% where: • TRTV is the Relative Tumor Volume of the treatment group. • CRTV is the Relative Tumor Volume of the negative control group.
The Relative Tumor Volume (RTV) is calculated based on tumor measurement results using the formula:(4) RTV=Vt/V0 where: • V0 is the mean tumor volume at the time of grouping (day 0). • Vt is the mean tumor volume at a given measurement time.
TRTV and CRTV are based on data from the same day.
At the conclusion of the experiment, tumor weights were measured, and the T/C was calculated. Tweight and Cweight represent the tumor weights of the treatment group and the vehicle control group, respectively.

[3] = cited from earlier work
[4] = major metabolite BZG791; CYP3A4 to a lesser extent; no reference given; cited from earlier work
[5] = test system: P-gp; details: cited from earlier work
[6] = test system: CYP3A4; set-up: method as in ref 31 = [31]; 31. FDA Label of PIQRAY® (Alpelisib) FDA Silver Spring, MD, USA 2019; details: repeated doses of 300 mg BYL719 with midazolam and other substrates, everolimus; cited from earlier work
[7] = human, in vivo; cited from earlier work
[8] = test system: fasting plasma glucose (∆FPG); assay: PK/PD sigmoid Emax model of dorzagliatin plasma concentration vs ∆FPG; assay type: in vivo, BALB/c nude mice
Procedure: To further characterize the pharmacokinetics of the compounds, a two-compartment model with first-order absorption was developed using the Phoenix Model module in Phoenix software. The AIC method was applied to identify the most suitable pharmacokinetic model. This model facilitated the comprehensive evaluation of the pharmacokinetic behavior of the drugs under investigation.
To evaluate the effect of the test compounds on blood glucose levels, 10 μL of blood was collected from the tail veins of mice at baseline (time 0) and at predetermined time points (0.5, 1, 2, 4, 6, and 8 h) post-administration. Blood glucose levels were measured using a OneTouch Ultra glucometer. Changes in FPG levels over time were monitored and analyzed. ∆FPG was calculated using Equation (5):(5) ∆FPG=FPGcontrol−FPGexp/FPGcontrol×100% where: • FPGexp represents the FPG levels in the dorzagliatin group, dorzagliatin + WX390 group, or the dorzagliatin + BYL719 group. • FPGcontrol represents the FPG levels in the vehicle control group, WX390 group, or BYL719 group.
A preliminary PK/PD interaction model was developed using plasma concentrations and FPG levels in tumor-bearing mice. The relationship between plasma drug concentrations and FPG reduction was described using the Sigmoid Eₘₐₓ model (Equation (6)):(6) E=E0+Emax×Ce^γ/EC50γ+Ce^γ where: • E represents the mean percent blood glucose reduction. • Cₑ indicates the plasma concentration of the drug that elicits a pharmacodynamic response. • E0 is the baseline drug effect. • Eₘₐₓ represents the maximum potential drug effect. • EC50 is the plasma concentration at which 50% of the maximum drug effect is observed. • γ denotes the Hill coefficient, which reflects the steepness of the concentration-effect curve.

[9] = cited from earlier work; remark: listed apart in the source
[10] = test system: CYP1A2, 2A6, 2C9, 2C19, 2D6, 2E1, CYP3A4/5; set-up: method as in ref 32 = [32]; 32. Wang J. Zhao Z. Xu W. Hu X. Jin P. First Marketed Glucokinase Activator for Antidiabetic Therapy: Dorzagliatin Chin. Pharm. J. 2024 59 651 656; details: in vitro studies; cited from earlier work
[11] = set-up: method as in PMID 35551294; details: cited from earlier work
[12] = female, BALB/c nude, mouse, plasma, po, 25 mg/kg, PI3Ki measured in combination group with Dorz 10 mg/kg (given 30 min before), WX390 0.2 mg/kg or BYL719 25 mg/kg oral
[13] = female, BALB/c nude, mouse, plasma, po, 25 mg/kg, monotherapy group, plasma, oral gavage once daily for four weeks, Dorz 10 mg/kg, WX390 0.2 mg/kg, BYL719 25 mg/kg
[14] = Dorz 10 mg/kg measured in Dorz + BYL719 (25 mg/kg) group, oral
[15] = Dorz 10 mg/kg measured in Dorz + WX390 (0.2 mg/kg) group, oral
[16] = monotherapy group, plasma, oral gavage once daily for four weeks, Dorz 10 mg/kg, WX390 0.2 mg/kg, BYL719 25 mg/kg
[17] = E = mean percent blood glucose reduction (∆FPG)
[18] = co-administration with moderate CYP3A4 inhibitors such as verapamil, fluconazole, erythromycin

- Tmax ([1]; PI3Ki measured in combination group with Dorz 10 mg/kg (given 30 min before), WX390 0.2 mg/kg or BYL719 25 mg/kg oral): 1.00 h
- AUC(0-t) [1, 12]: 24800 ng·h/mL
- half-life [1, 12]: 6.72 h
- Cmax ([1]; female, BALB/c nude, mouse, plasma, po, 25 mg/kg, PI3Ki measured in combination group with Dorz 10 mg/kg (given 30 min before), WX390 0.2 mg/kg or BYL719 25 mg/kg oral, read-out: Cmax): 4210 ng/mL
- AUC(0-t) [1, 13]: 29000 ng·h/mL
- half-life [1, 13]: 5.33 h
- Cmax ([1]; female, BALB/c nude, mouse, plasma, po, 25 mg/kg, monotherapy group, plasma, oral gavage once daily for four weeks, Dorz 10 mg/kg, WX390 0.2 mg/kg, BYL719 25 mg/kg, read-out: Cmax): 4790 ng/mL
- Tmax ([1]; female, BALB/c nude, mouse, monotherapy group, plasma, oral gavage once daily for four weeks, Dorz 10 mg/kg, WX390 0.2 mg/kg, BYL719 25 mg/kg, read-out: Tmax): 1 h
Structure (SMILES): Cc1nc(NC(=O)N2CCC[C@H]2C(N)=O)sc1-c1ccnc(C(C)(C)C(F)(F)F)c1 [BYL719, alpelisib]
- T/C (Relative Tumor Growth Rate) [2]: 52.85%
- TGI (Tumor Growth Inhibition) [2]: 52.46%
- Tumor Volume (Day 28) [2]: 836 mm^3 and 836 ± 71 mm^3
- AUC0→24h ([3]; 300 mg/day): 33,224 ng·h/mL
- Cmax ([3]; 300 mg/day): 2480 ng/mL
- apparent volume of distribution [3]: 114 L
- clearance rate [3]: 9.2 L/h
- effect of food intake on pharmacokinetic profile [3]: does not significantly affect
- plasma protein binding rate [3]: 89%
- dose proportionality of exposure ([3]; fed conditions, doses 30 to 450 mg): increases proportionally
- metabolic route (in vitro studies) [4]: primarily metabolized through chemical degradation and enzymatic hydrolysis
- P-gp inhibitor status [5]: P-gp inhibitor
- CYP3A4 inhibitor status [6]: not a CYP3A4 inhibitor
- rate of hyperglycemia, any grade [7]: 63.7%
- rate of hyperglycemia, grades 3–4 [7]: 36.6%
- treatment discontinuation rate due to hyperglycemia [7]: 6.3%

- AUC0→t [1, 14]: 3953.58 ng·h/mL
- Cmax [1, 14]: 2013.33 ng/mL
- Tmax [1, 14]: 1.00 h
- t1/2 [1, 14]: 1.86 h
- AUC0→t [1, 15]: 4657.23 ng·h/mL
- Cmax [1, 15]: 1776.67 ng/mL
- Tmax [1, 15]: 0.50 h
- t1/2 [1, 15]: 2.93 h
- AUC0→t [1, 16]: 3287.90 ng·h/mL
- Cmax [1, 16]: 1331.00 ng/mL
- Tmax [1, 16]: 0.50 h
- t1/2 [1, 16]: 2.15 h
- EC50 (∆FPG as indicator) ([8]; dorzagliatin plasma concentration giving 50% of maximum effect, per treatment group): 0.74 µg/mL (≈ 1.6 µM)
Structure (SMILES): CC(C)C[C@@H](C(=O)Nc1ccn(C[C@@H](O)CO)n1)N1CC(Oc2ccccc2Cl)=CC1=O [Dorz, Dorzagliatin]
- T/C (Relative Tumor Growth Rate) [2]: 90.81%
- TGI (Tumor Growth Inhibition) [2]: 10.19%
- Tumor Volume (Day 28) [2]: 1437 ± 172 mm^3
- E0 (baseline drug effect) in PK/PD equation [8, 17]: 10
- Emax (maximum potential drug effect) in PK/PD equation [8, 17]: 50%
- Hill coefficient (γ) ([8]; ∆FPG, per treatment group): 0.80
- time to steady-state plasma pharmacokinetics ([9]; T2DM patients, twice-daily oral administration): ≤ 4 days
- AUCtau ([9]; after oral administration): 5570 ng·h/mL
- Cmax ([9]; after oral administration): 1090 ng/mL
- median Tmax ([9]; after oral administration): 1.31 h
- Metabolism [9]: primarily occurs in the liver via cytochrome P450 enzyme 3A4 (CYP3A4)
- fold increase in AUC0→t of dorzagliatin [9, 18]: 2.4 fold
- fold increase in Cmax of dorzagliatin [9, 18]: 1.2 fold
- mean apparent volume of distribution ([9]; single 50 mg oral dose, healthy subjects): 115 L
- inhibition of CYP1A2, 2A6, 2C9, 2C19, 2D6, 2E1, CYP3A4/5 [10]: does not inhibit
- P-gp substrate status [5]: substrate of P-gp
- patients with clinically significant hypoglycemic events (blood glucose < 54 mg/dL) ([11]; 24-week double-blind treatment period, 1 of 310 patients): 0.3%
- exposure-adjusted event rate for clinically significant hypoglycemia ([11]; 52-week observation period): 0.006 events per patient-year
